Experimental data reported in patent publication US20030118990A1, “Novel estrogen-regulated G protein gamma subunit: compositions and methods of use” (Schering Aktiengesellschaft, priority 2000, published 2003).

Tested on: mGγ12 mRNA
Experiment: Northern blot analysis of mGγ12 mRNA in liver of estrogen-treated mice
Type: in vivo, mouse
Settings: liver RNA; normal male mice treated with estrogen vs ERKO male mice treated with estrogen and un-treated male mice; effect via estrogen receptor alpha, not beta
Procedure: Expressed sequence tags (EST) that represent messenger RNA (mRNA) molecules that are more abundant in the liver of normal male mice treated with estrogen than in the liver of estrogen receptor alpha knockout (ERKO) male mice also treated with estrogen were obtained by subtraction cloning. The DNA sequence of complementary DNA (cDNA) clones representing the full-length mRNA molecules corresponding to one of the above mentioned EST's was obtained.
Northern blot analysis was conducted with RNA prepared from the livers of normal male mice treated with estrogen, ERKO male mice treated with estrogen, and un-treated male mice using a hybridization probe derived from the mGγ12 cDNA.

In the case of estrogen, the “transcription of the mGγ12 gene in the liver” value is reported as “activated”.
